Legend:
[1] = biological target: dopamine D1 receptor (Macaca mulatta, UniProt O77680); test: Radioligand binding affinity on dopamine D1 receptor ([3H]-SCH23390); conditions: D1 receptor protein expressed in HEK-293 cells
Procedure: (§1) The compound of the invention at different concentrations (10^−5 M-10^−11 M), an isotope receptor ligand and a receptor protein were loaded into a reaction tube, incubated at 30° C. in a water bath for 60 min, and then terminated in a refrigerator. The mixture was filtered through suction filtration using GF/C glass fiber paper on a Millipore filter (millipore) cell sample collector, and dried. The resulting sample was placed into a 0.5 mL tube, added with 500 μL of liquid scintillation fluid, and counted for measuring the intensity of radioativity.
(§2) Firstly, the above […] were dissolved in DMSO and then diluted with double distilled water to the appropriate concentration (10^−5 M-10^−11 M).
(§3) (+) Butaclamo was purchased from RBI Company, GF/C glass fiber filter paper was purchased from Whatman Co., liquid scintillation fluid (dopamine D1, D2 receptors)/liposoluble scintillation fluid (5-HT1A. 5-HT2A receptor), Beckman LS-6500 multi-function liquid scintillation counter.

[2] = biological target: dopamine D2 receptor (Rattus norvegicus, UniProt P61169); test: Radioligand binding affinity on dopamine D2 receptor ([3H]Spiperone); conditions: D2 receptor protein expressed in HEK-293 cells
Sequence of dopamine D2 receptor (P61169 whole entry): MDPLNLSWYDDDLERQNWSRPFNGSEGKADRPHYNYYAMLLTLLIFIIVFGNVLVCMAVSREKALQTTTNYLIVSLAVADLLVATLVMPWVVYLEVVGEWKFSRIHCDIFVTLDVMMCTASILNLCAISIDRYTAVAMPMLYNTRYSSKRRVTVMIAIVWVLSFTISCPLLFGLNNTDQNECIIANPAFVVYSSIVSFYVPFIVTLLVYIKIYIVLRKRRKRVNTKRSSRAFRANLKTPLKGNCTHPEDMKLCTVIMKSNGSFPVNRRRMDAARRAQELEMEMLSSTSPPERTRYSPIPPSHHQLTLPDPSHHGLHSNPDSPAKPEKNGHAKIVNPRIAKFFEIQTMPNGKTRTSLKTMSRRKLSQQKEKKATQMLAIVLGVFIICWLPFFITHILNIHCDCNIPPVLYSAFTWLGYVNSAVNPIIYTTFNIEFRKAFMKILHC
Procedure: as §1, §2, §3

[3] = biological target: T1, 5-HT1A receptor (Homo sapiens, UniProt P08908); test: Radioligand binding affinity on 5-HT1A receptor ([3H]8-OH-DPAT); conditions: 5-HT1A receptor protein expressed in HEK-293 cells
T1 sequence (P08908 1-422): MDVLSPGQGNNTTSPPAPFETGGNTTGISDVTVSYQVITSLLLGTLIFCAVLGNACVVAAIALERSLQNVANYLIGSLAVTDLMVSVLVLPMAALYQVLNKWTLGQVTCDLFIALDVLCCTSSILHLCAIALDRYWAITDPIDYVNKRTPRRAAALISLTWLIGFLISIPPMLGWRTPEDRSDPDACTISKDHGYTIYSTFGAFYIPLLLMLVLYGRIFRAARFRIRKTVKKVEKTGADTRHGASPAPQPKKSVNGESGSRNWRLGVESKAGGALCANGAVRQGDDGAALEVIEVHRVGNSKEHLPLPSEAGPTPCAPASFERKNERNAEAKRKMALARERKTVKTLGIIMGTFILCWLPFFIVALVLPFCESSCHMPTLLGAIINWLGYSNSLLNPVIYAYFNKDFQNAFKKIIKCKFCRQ
Procedure: (§4) (1) Determination of the affinity of the diarylo[a,g]quinolizines of formula (I) and derivatives thereof on dopamine D1, dopamine D2, 5-HT1A and 5-HT2A receptors.
as §1
For 5-HT1A receptor: isotope receptor ligand [3H]8-OH-DPAT; 5-HT1A receptor protein expressed in HEK-293 cells;
as §2, §3

[4] = biological target: T2, 5-HT2A receptor (Homo sapiens, UniProt P28223); test: Radioligand binding affinity on 5-HT2A receptor ([3H]-Ketanserin); conditions: 5-HT2A receptor protein expressed in HEK-293 cells
T2 construct: expressed in transfected cells; host or cells: HEK-293
T2 sequence (P28223 whole entry): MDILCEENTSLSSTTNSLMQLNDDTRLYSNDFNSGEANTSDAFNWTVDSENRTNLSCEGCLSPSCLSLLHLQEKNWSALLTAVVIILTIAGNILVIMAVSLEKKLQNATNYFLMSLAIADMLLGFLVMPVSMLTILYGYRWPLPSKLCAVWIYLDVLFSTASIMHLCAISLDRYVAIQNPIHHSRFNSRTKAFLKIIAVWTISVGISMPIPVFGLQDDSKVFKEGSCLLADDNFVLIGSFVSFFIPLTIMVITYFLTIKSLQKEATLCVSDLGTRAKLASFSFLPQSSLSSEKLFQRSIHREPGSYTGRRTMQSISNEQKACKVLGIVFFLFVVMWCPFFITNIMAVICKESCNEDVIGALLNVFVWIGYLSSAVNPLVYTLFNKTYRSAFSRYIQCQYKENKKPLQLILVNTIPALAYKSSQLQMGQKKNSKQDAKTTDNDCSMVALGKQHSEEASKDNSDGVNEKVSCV
Procedure: as §4, §1
For 5-HT2A receptor: isotope receptor ligand [3H]-Ketanserin; 5-HT2A receptor protein expressed in HEK-293 cells;
as §2, §3

Sequence of dopamine D1 receptor (O77680 whole entry): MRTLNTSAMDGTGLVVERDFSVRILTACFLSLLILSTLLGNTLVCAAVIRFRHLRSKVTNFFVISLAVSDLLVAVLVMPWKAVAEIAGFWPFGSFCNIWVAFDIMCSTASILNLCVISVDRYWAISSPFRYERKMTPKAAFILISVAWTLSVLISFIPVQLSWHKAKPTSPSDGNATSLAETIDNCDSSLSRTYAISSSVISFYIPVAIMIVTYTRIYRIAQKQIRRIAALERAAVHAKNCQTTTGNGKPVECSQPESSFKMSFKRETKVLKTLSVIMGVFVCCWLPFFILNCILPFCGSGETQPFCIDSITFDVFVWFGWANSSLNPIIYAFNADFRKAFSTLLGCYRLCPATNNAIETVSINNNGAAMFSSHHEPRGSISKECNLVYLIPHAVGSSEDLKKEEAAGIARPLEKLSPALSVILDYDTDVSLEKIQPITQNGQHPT

Row | Compound | D1 receptor inhibition % [1] | IC50 [1] | Ki [1] | D2 receptor inhibition % [2] | IC50 [2] | Ki [2] | 5-HT1A receptor inhibition % [3] | IC50 [3] | Ki [3] | 5-HT2A receptor inhibition % [4]
1 | CCc1cc2c(s1)C[C@H]1c3cc(O)c(OC)cc3CCN1C2 [DS003, (S)-2-hydroxy-3-methoxy-10-ethyl-5,8,12,12a-tetrahydro-6H-benzo[a]thieno[3,2-g]quinolizine] | 98.16% | 48.1 ± 0.68 nM | 26.3 ± 0.37 nM | 98.50% | 180 ± 16.8 nM | 40.8 ± 3.8 nM | 92.10% | 1250 ± 237 nM | 998 ± 190 nM | 45.15%
2 | COc1ccc2c(c1OC)CN1CCc3sccc3[C@@H]1C2 [AS022, (S)-8,9-dimethoxy-4,7,12,12a-tetrahydro-5H-benzo [g]thieno[3,2-a]quinolizine] | 69.25% |  |  | 5.21% |  |  | 6.60% |  |  | 32.31%
